Laboratory results taken from US4665095A, “Use of 2-[(3,5-dihalo-4-aminobenzyl)]imidazolines to stimulate alpha-1 adrenergic receptors and to treat nasal congestion” (Abbott Laboratories, priority 1985, dated 1987).
Where a name gives a salt, the structure may show the parent alone.

Columns and labels:
[1] = test system: nasal mucosa of rats; assay: Effect on Nasal Irritation in Rats; type: in vivo, rat (CD strain)
Method: The product of Example 4 was dissolved in phosphate buffered normal saline and adjusted to a pH of approximately 7. The solution was prepared at the following concentrations: 0.05, 0.15, 0.5 and 1.5 percent. Groups of five male rats (CD strain) were administered each dose. The rats were approximately 5 weeks old at the start of treatment. Prior to dosing, ketaminehydrochloride was administered intraperitoneally to produce transient anesthesia to facilitate test compound administration. Rats in each group were given 0.04 mL/day of the appropriate solution for 14 days. The dosage was divided equally between both nostrils (i.e., 0.02 mL/nostril/day).

[2] = test system: nasal mucosa; details: background art; cited from earlier work
[3] = test system: nasal resistance in anesthetized dogs; assay: Effect on airway (nasal) resistance in anesthetized dogs following intranasal spray administration; type: in vivo, beagle dog; details: aerosol, mg per dog
Method: (§1) a. Method Beagle dogs of either sex, weighing 9-12 kg were anesthetized with nembutal (30 mg/kg, intravenously) with supplemental doses administered throughout the experiment as required. The dogs were intubated with a cuffed endotracheal tube and were ventilated with room air by means of a Harvard respiration pump. Arterial blood pressure was recorded from a femoral artery using a Statham P23Gb pressure transducer. A tachygraphic recording of heart rate was obtained from the blood pressure signal.
(§2) A constant flow of air (2 liters/minute); provided by an anesthetic machine (CAECO) was administered into a nasal cavity through a 6 cm long plastic tube tapered to a diameter of 6 mm to fit into the right nostril. The air perfused the nasal cavity and exited through the mouth. The resistance to the air flow exerted by the large surface area of the nasal mucosa was measured as a nasal pressure in cm of water, using Model MP 45 Validyne transducer. […] Since the amount of drug administered in this way is extremely small and not directly measurable, the doses were calculated from the concentration of drug in the humidifier and volume of fluid used in each administration (in mg per dog). The nasal resistance, heart rate and blood pressure were monitored prior to and then 2 hours following the drug administration. […]

[4] = Blood pressure and heart rate in anesthetized dogs following intranasal spray administration; type: in vivo, beagle dog
Method: as §1, §2

[5] = up to 1.5%, 0.04 mL/day intranasal, 14 days

Q: What does the source list for `Cc1cc(C(C)(C)C)c(O)c(C)c1CC1=NCCN1` [oxymetazoline]?
A: toxicity or nasal injury ([1]; 0.05% to 0.15% concentrations): did not cause any toxicity or nasal injury; nasal mucosal injury ([1]; 0.5% and 1.5% concentration): induced nasal mucosal injury; systemic side effects and deaths ([1]; 0.5% and 1.5%, repeated administration): Systemic side effects and deaths occurred in most animals; irritation of the nasal mucosa [2]: often cause irritation of the nasal mucosa

Q: Which “irritation of the nasal mucosa” value [2] does the source give for `c1ccc2c(CC3=NCCN3)cccc2c1` [naphazoline] here?
A: often cause irritation of the nasal mucosa

Q: For `Nc1c(Cl)cc(CC2=NCCN2)cc1Cl` [Example 4, 2-[(3,5-Dichloro-4-aminobenzyl)]imidazoline hydrochloride], which “threshold dose producing decrease of nasal resistance” value [3] is on record?
A: 0.00165 mg

Q: What about the systematic hemodynamic effects ([4]; at the effective nasal decongestant dose) of the same compound?
A: devoid of any systematic hemodynamic effects

Q: What about the “elevation of the blood pressure above the base level” value ([4]; highest tested dose, 1.65 mg) of the same compound?
A: approximately 10%

Q: And the nasal mucosal injury [1, 5]?
A: no nasal mucosal injury

Q: And the systemic toxic effects [1, 5]?
A: no nasal mucosal injury or any systemic toxic effects
